Laboratory results: PMC4527730, “A Pan-GTPase Inhibitor as a Molecular Probe” (PLoS ONE, 2015)

How the values were obtained:
Test in all cases: Multiplex bead-based flow cytometry dose-response of fluorescent guanine nucleotide binding
H-Ras = H-Ras (Homo sapiens, UniProt P01112); details: read-out: EC50 H-Ras; BODIPY-FL GTP binding; 2 h at 4°C
Experimental: (§1) Briefly, individual GST-GTPases were separately attached to glutathione microsphere beads that were labeled with varying intensity of red fluorescent dye, and subsequently combined. The buffer contains 30 mM HEPES (pH 7.2), 150 mM KCl, 20 mM NaCl, 0.1% BSA, 1 mM DTT, 1 mM EDTA and 0.1% NP-40. […] To study whether the compounds are slow binders, BODIPY^- FL GTP was added either immediately or 2 h after compound addition. […] The curves were fitted to the sigmoidal dose-response equation using GraphPad Prism. Percent response was calculated as the ratio of (sample MCF–negative control MCF) / (positive control MCF–negative control MCF).

Cdc42 Q61L = Cdc42 Q61L (Homo sapiens, UniProt P60953, Q61L); details: read-out: EC50 Cdc42 Q61L; BODIPY-FL GTP binding; 2 h at 4°C
Experimental: as §1

Rab7 = Rab7 (Canis lupus familiaris, UniProt P18067); details: read-out: EC50 Rab7; BODIPY-FL GTP binding; 2 h at 4°C
Rab7, sequence (P18067 2-207 limits assumed): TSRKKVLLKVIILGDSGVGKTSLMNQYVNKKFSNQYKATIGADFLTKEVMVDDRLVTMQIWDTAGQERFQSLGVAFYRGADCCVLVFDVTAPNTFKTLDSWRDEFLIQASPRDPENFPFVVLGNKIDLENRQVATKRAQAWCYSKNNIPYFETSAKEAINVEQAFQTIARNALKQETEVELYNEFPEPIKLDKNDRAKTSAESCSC
Experimental: as §1

H-Ras G12V = H-Ras G12V (Homo sapiens, UniProt P01112, G12V); details: read-out: EC50 H-Ras G12V; BODIPY-FL GTP binding; 2 h at 4°C
H-Ras G12V, sequence (P01112 whole entry G12V): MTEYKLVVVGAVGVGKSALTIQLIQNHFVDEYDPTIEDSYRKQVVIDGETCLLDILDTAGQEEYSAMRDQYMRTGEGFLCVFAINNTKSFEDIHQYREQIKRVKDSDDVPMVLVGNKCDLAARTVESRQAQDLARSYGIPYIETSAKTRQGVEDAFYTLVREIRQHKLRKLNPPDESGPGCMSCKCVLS
Experimental: as §1

Cdc42 = Cdc42 (Homo sapiens, UniProt P60953); details: read-out: EC50 Cdc42; BODIPY-FL GTP binding; 2 h at 4°C
Cdc42, sequence (P60953 whole entry): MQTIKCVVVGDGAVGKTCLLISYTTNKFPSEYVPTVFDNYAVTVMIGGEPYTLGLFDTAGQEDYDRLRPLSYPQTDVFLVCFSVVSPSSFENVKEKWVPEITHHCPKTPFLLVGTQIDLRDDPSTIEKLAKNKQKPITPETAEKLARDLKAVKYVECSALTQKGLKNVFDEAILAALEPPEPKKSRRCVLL
Experimental: as §1

Rac1 = Rac1 (Homo sapiens, UniProt P63000); details: read-out: EC50 Rac1; BODIPY-FL GTP binding; 2 h at 4°C; 1 mM MgCl2
Experimental: (§2) Briefly, individual GST-GTPases were separately attached to glutathione microsphere beads that were labeled with varying intensity of red fluorescent dye, and subsequently combined. The buffer contains 30 mM HEPES (pH 7.2), 150 mM KCl, 20 mM NaCl, 0.1% BSA, 1 mM DTT, 1 mM EDTA and 0.1% NP-40. For Rho A and Rac1, 1 mM EDTA was replaced with 1 mM MgCl2 to stabilize the protein. […] To study whether the compounds are slow binders, BODIPY^- FL GTP was added either immediately or 2 h after compound addition. […] The curves were fitted to the sigmoidal dose-response equation using GraphPad Prism. Percent response was calculated as the ratio of (sample MCF–negative control MCF) / (positive control MCF–negative control MCF).

RhoA = RhoA (Homo sapiens, UniProt P61586); details: read-out: EC50 RhoA; BODIPY-FL GTP binding; 2 h at 4°C; 1 mM MgCl2
RhoA, sequence (P61586 whole entry): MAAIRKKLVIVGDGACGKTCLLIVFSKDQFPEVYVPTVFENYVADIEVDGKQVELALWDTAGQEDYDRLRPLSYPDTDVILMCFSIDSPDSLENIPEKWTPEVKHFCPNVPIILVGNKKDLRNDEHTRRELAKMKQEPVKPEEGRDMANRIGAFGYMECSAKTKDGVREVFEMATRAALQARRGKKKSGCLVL
Experimental: as §2

Rac1 Q61L = Rac1 Q61L (Homo sapiens, UniProt P63000, Q61L); details: read-out: EC50 Rac1 Q61L; BODIPY-FL GTP binding; 2 h at 4°C

Cdc42 Q61L, sequence (P60953 whole entry Q61L): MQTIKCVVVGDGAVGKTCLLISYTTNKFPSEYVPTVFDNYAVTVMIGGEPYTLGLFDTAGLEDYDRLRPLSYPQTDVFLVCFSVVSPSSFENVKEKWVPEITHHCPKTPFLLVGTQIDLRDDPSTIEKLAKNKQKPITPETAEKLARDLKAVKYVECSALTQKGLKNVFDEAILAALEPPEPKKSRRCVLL
H-Ras, sequence (P01112 whole entry): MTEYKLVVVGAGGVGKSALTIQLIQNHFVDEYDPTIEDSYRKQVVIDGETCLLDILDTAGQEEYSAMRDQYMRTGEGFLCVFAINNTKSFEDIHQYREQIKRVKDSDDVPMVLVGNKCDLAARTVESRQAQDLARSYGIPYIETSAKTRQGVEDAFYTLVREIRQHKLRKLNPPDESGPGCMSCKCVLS

| SMILES | EC50 (H-Ras) | EC50 (Cdc42 Q61L) | EC50 (Rab7) | EC50 (H-Ras G12V) | EC50 (Cdc42) | EC50 (Rac1) | EC50 (RhoA) | EC50 (Rac1 Q61L) |
| --- | --- | --- | --- | --- | --- | --- | --- | --- |
| CCOC(=O)c1c(NC(=O)Nc2ccc(C)cc2)sc2c1CCN(C)C2 [CID 2810963] | > 1000 µM | > 1000 µM | > 1000 µM | > 1000 µM | > 1000 µM | – | – | – |
| CC1(C)Cc2c(sc(NC(=S)NC(=O)c3cccc(Br)c3)c2C(=O)O)CO1 [CID 53301936] | 1.72 µM | 23.7 ± 23.9 µM | 2.51 ± 2.1 µM | 1.08 µM | 192 ± 244 µM | 31.1 µM | > 1000 µM | 17.8 µM |
| Cc1ccc(NC(=O)Nc2sc3c(c2C(=O)O)CCN(C)C3)cc1 [CID 46916259] | 30.2 µM | 28 µM | 49.3 µM | 32.2 µM | 26.2 µM | – | – | – |
| CN1CCc2c(sc(NC(=O)Nc3ccc(F)cc3)c2C(=O)O)C1 [CID 46916260] | > 1000 µM | > 1000 µM | > 1000 µM | > 1000 µM | > 1000 µM | – | – | – |
| CCOC(=O)c1c(NC(=O)NC(C)(C)C)sc2c1CCN(C)C2 [CID 2810964] | > 1000 µM | > 1000 µM | > 1000 µM | > 1000 µM | > 1000 µM | – | – | – |
| COC(=O)c1c(N)sc2c1CC(C)(C)OC2 [CID 974814] | > 1000 µM | > 1000 µM | > 1000 µM | > 1000 µM | > 1000 µM | – | – | – |
| Cc1ccc(C(=O)NC(=S)Nc2sc3c(c2C(=O)O)CC(C)(C)OC3)cc1 [CID 53377395] | 0.19 µM | 0.43 µM | 0.14 µM | 0.18 µM | 0.53 µM | 0.15 µM | 0.13 µM | 0.14 µM |
| Cc1ccc(Nc2nc3sc4c(c3c(=O)o2)CCN(C)C4)cc1 [CID 46916264] | > 1000 µM | > 1000 µM | > 1000 µM | > 1000 µM | > 1000 µM | – | – | – |
| CC(C)(C)OC(=O)c1c(NC(=S)NC(=O)c2ccccc2)sc2c1CCOC2 [CID 46916262] | > 1000 µM | > 1000 µM | > 1000 µM | > 1000 µM | > 1000 µM | – | – | – |
| CN1CCc2c(sc3nc(Nc4ccc(F)cc4)oc(=O)c23)C1 [CID 46916261] | > 1000 µM | > 1000 µM | > 1000 µM | > 1000 µM | > 1000 µM | – | – | – |
| CCOC(=O)c1c(NC(=S)Nc2ccccc2)sc2c1CC(C)(C)OC2 [CID 1097649] | > 1000 µM | > 1000 µM | > 1000 µM | > 1000 µM | > 1000 µM | – | – | – |
| CCOC(=O)c1c(NC(=O)Nc2ccc(F)cc2)sc2c1CCN(C)C2 [CID 2810966] | > 1000 µM | > 1000 µM | > 1000 µM | > 1000 µM | > 1000 µM | – | – | – |

Other lines, results leading:

| EC50 (H-Ras) | EC50 (Cdc42 Q61L) | EC50 (Rab7) | EC50 (H-Ras G12V) | EC50 (Cdc42) | EC50 (Rac1) | EC50 (RhoA) | EC50 (Rac1 Q61L) | SMILES |
| --- | --- | --- | --- | --- | --- | --- | --- | --- |
| 1.39 µM | 1.83 µM | 1.16 µM | 0.85 µM | 5.87 µM | 1.51 µM | 1.45 µM | 1.42 µM | Cc1cccc(C(=O)NC(=S)Nc2sc3c(c2C(=O)O)CC(C)(C)OC3)c1 [CID 53377400] |
| 0.028 ± 0.011 µM | 0.077 ± 0.087 µM | 0.032 ± 0.0073 µM | 0.035 µM | 2.2 ± 3.7 µM | 0.053 µM | 0.046 µM | 0.046 µM | CCC1(C)Cc2c(sc(NC(=S)NC(=O)c3ccccc3)c2C(=O)O)CO1 (stereo not drawn) [CID 53377401] |
| 0.03 µM | – | 0.04 µM | 0.03 µM | – | 0.06 µM | 0.1 µM | 0.08 µM | O=C(NC(=S)Nc1sc2c(c1C(=O)O)CC1(CCCC1)OC2)c1ccccc1 [CID 53377403] |
| 0.035 µM | – | 0.025 µM | 0.024 µM | – | 0.029 µM | 0.033 µM | 0.027 µM | CC1(C)Cc2c(sc(NC(=S)NC(=O)c3cccs3)c2C(=O)O)CO1 [CID 53377398] |
| 1.32 µM | 2.35 µM | 1.12 µM | 0.81 µM | 20.8 µM | – | – | – | COc1ccccc1C(=O)NC(=S)Nc1sc2c(c1C(=O)O)CC(C)(C)OC2 [CID 53377397] |
